Assay results published in the NIST ThermoML archive (doi:10.1021/acs.jced.5b00802).
± gives the expanded uncertainty stated by the source.

Tests used:
[1] = refractive index (Na D-line) (dimensionless); details: 101.33 kPa, Liquid, Standard Abbe refractometry
[2] = 101.33 kPa, Liquid; for speed of sound: Sing-around technique in a fixed-path interferometer; for mass density: Vibrating tube method
[3] = xn = mol fraction of the nth substance listed; details: 298.15 K, 100 kPa, Liquid; for speed of sound: Frequency=3 MHz, Sing-around technique in a fixed-path interferometer; for mass density: Vibrating tube method
[4] = refractive index (Na D-line) (dimensionless); xn = mol fraction of the nth substance listed; details: 298.15 K, 100 kPa, Liquid, Standard Abbe refractometry

CCCCCCN [1-hexanamine]
Details | mass density, 293.15 K [kg/m3] | mass density, 298.15 K [kg/m3] | mass density, 303.15 K [kg/m3] | refractive index, 298.15 K | speed of sound, 293.15 K [m/s] | speed of sound, 298.15 K [m/s] | speed of sound, 303.15 K [m/s]
[1] | – | – | – | 1.41577 ± 0.0043 | – | – | –
[2] | 764.423 ± 1.8 | 760.073 ± 1.8 | 755.848 ± 1.8 | – | 1324 ± 1.1 | 1303.6 ± 1.1 | 1283.6 ± 1.1

CCCCNCCCC [dibutylamine]
Details | mass density, 293.15 K [kg/m3] | mass density, 298.15 K [kg/m3] | mass density, 303.15 K [kg/m3] | refractive index, 293.15 K | refractive index, 298.15 K | refractive index, 303.15 K | speed of sound, 293.15 K [m/s] | speed of sound, 298.15 K [m/s] | speed of sound, 303.15 K [m/s]
[1] | – | – | – | 1.41724 ± 0.0043 | 1.41488 ± 0.0043 | 1.41253 ± 0.0043 | – | – | –
[2] | 759.695 ± 1.8 | 755.525 ± 1.8 | 751.458 ± 1.8 | – | – | – | 1261.1 ± 1.1 | 1241.5 ± 1.1 | 1222.5 ± 1.1

CCCCN [1-butanamine]
Details | mass density, 293.15 K [kg/m3] | mass density, 298.15 K [kg/m3] | mass density, 303.15 K [kg/m3] | refractive index, 293.15 K | refractive index, 298.15 K | refractive index, 303.15 K | speed of sound, 293.15 K [m/s] | speed of sound, 298.15 K [m/s] | speed of sound, 303.15 K [m/s]
[1] | – | – | – | 1.4006 ± 0.0042 | 1.39786 ± 0.0042 | 1.395 ± 0.0042 | – | – | –
[2] | 737.048 ± 1.8 | 732.231 ± 1.8 | 727.452 ± 1.8 | – | – | – | 1268.3 ± 1.4 | 1246 ± 1.4 | 1224.6 ± 1.4

CN(C)C=O [dimethylformamide]
Details | mass density, 293.15 K [kg/m3] | mass density, 298.15 K [kg/m3] | mass density, 303.15 K [kg/m3] | refractive index, 293.15 K | refractive index, 298.15 K | refractive index, 303.15 K | speed of sound, 293.15 K [m/s] | speed of sound, 298.15 K [m/s] | speed of sound, 303.15 K [m/s]
[1] | – | – | – | 1.43055 ± 0.0043 | 1.42828 ± 0.0043 | 1.42603 ± 0.0043 | – | – | –
[2] | 948.881 ± 2.3 | 944.081 ± 2.3 | 939.361 ± 2.3 | – | – | – | 1476.8 ± 1.2 | 1457.2 ± 1.2 | 1438.2 ± 1.2

CCCCNCCCC [dibutylamine] + CN(C)C=O
Details | mass density, [3] [kg/m3] | refractive index, [4] | speed of sound, [3] [m/s]
x2 = 0.0642 | 761.171 ± 1.8 | – | 1246.4 ± 1.1
x2 = 0.1038 | – | 1.41553 ± 0.0043 | –
x2 = 0.1134 | 765.782 ± 1.9 | – | 1250.5 ± 1.1
x2 = 0.1647 | 770.882 ± 1.9 | – | 1255 ± 1.1
x2 = 0.2076 | – | 1.41628 ± 0.0043 | –
x2 = 0.2121 | 775.872 ± 1.9 | – | 1259.5 ± 1.1
x2 = 0.2734 | 782.835 ± 1.9 | – | 1266.1 ± 1.1
x2 = 0.3213 | 788.624 ± 1.9 | – | 1271.6 ± 1.2
x2 = 0.3608 | – | 1.41761 ± 0.0043 | –
x2 = 0.4114 | 800.702 ± 1.9 | – | 1283.5 ± 1.2
x2 = 0.4526 | 806.766 ± 2 | – | 1289.7 ± 1.2
x2 = 0.4897 | – | 1.419 ± 0.0043 | –
x2 = 0.5072 | 815.344 ± 2 | – | 1298.6 ± 1.2
x2 = 0.5574 | 823.977 ± 2 | – | 1307.9 ± 1.2
x2 = 0.5933 | – | 1.42034 ± 0.0043 | –
x2 = 0.5996 | 831.688 ± 2 | – | 1316.3 ± 1.2
x2 = 0.6514 | 842.013 ± 2.1 | – | 1328.1 ± 1.2
x2 = 0.6869 | 849.571 ± 2.1 | – | 1336.8 ± 1.2
x2 = 0.688 | – | 1.42178 ± 0.0043 | –
x2 = 0.7361 | 860.924 ± 2.1 | – | 1350.4 ± 1.2
x2 = 0.7709 | – | 1.42323 ± 0.0043 | –
x2 = 0.7904 | 874.714 ± 2.1 | – | 1367.5 ± 1.3
x2 = 0.8398 | – | 1.42459 ± 0.0043 | –
x2 = 0.8418 | 889.103 ± 2.2 | – | 1385.9 ± 1.3
x2 = 0.8921 | 904.666 ± 2.2 | – | 1406.1 ± 1.3
x2 = 0.8989 | – | 1.42587 ± 0.0043 | –
x2 = 0.9471 | 923.65 ± 2.3 | – | 1431 ± 1.4
x2 = 0.9497 | – | 1.42706 ± 0.0043 | –
x2 = 0.9738 | – | 1.42765 ± 0.0043 | –

CCCNCCC [dipropylamine]
Details | mass density, 293.15 K [kg/m3] | mass density, 298.15 K [kg/m3] | mass density, 303.15 K [kg/m3] | refractive index, 293.15 K | refractive index, 298.15 K | refractive index, 303.15 K | speed of sound, 293.15 K [m/s] | speed of sound, 298.15 K [m/s] | speed of sound, 303.15 K [m/s]
[1] | – | – | – | 1.40432 ± 0.0042 | 1.40139 ± 0.0042 | 1.39883 ± 0.0042 | – | – | –
[2] | 738.194 ± 1.8 | 733.618 ± 1.8 | 729.098 ± 1.8 | – | – | – | 1209.4 ± 1.4 | 1187.7 ± 1.4 | 1167.2 ± 1.4

CCCCCCN [1-hexanamine] + CN(C)C=O
Details | mass density, [3] [kg/m3] | refractive index, [4] | speed of sound, [3] [m/s]
x2 = 0.0506 | 765.582 ± 1.9 | 1.41613 ± 0.0043 | 1307.1 ± 1.1
x2 = 0.0992 | 771.096 ± 1.9 | – | 1310.8 ± 1.1
x2 = 0.1725 | 779.897 ± 1.9 | 1.41707 ± 0.0043 | 1316.7 ± 1.1
x2 = 0.2548 | 790.546 ± 1.9 | 1.41779 ± 0.0043 | 1324.2 ± 1.2
x2 = 0.3476 | 803.611 ± 1.9 | 1.4187 ± 0.0043 | 1333.7 ± 1.2
x2 = 0.4461 | 818.861 ± 2 | 1.4198 ± 0.0043 | 1345.5 ± 1.2
x2 = 0.55 | 836.751 ± 2 | 1.42107 ± 0.0043 | 1360.1 ± 1.2
x2 = 0.6022 | 846.551 ± 2.1 | – | 1368.3 ± 1.2
x2 = 0.6558 | – | 1.42257 ± 0.0043 | –
x2 = 0.7056 | 867.688 ± 2.1 | – | 1387.1 ± 1.2
x2 = 0.7573 | – | 1.42411 ± 0.0043 | –
x2 = 0.7996 | 889.217 ± 2.2 | – | 1406.8 ± 1.2
x2 = 0.8492 | 901.602 ± 2.2 | 1.42564 ± 0.0043 | 1418.4 ± 1.2
x2 = 0.8982 | 914.549 ± 2.2 | – | 1430.4 ± 1.2
x2 = 0.953 | 929.99 ± 2.3 | 1.42747 ± 0.0043 | 1444.7 ± 1.2
